Among the data in US12667572B2, “Tricyclic compounds useful in the treatment of cancer, autoimmune and inflammatory disorders” (SCHRÖDINGER, INC., priority 2021, dated 2026) are IC50 values, retold here.

SMILES strings stand for the structures.

The assay has as its target T1, full-length MALT1 protein His-MALT1(1-824) (Homo sapiens, UniProt Q9UDY8).
T1 construct: full-length MALT1 protein His-MALT1(1-824); His (N); made in house; host or cells: baculovirus-infected insect cells
T1 sequence (Q9UDY8 1-824): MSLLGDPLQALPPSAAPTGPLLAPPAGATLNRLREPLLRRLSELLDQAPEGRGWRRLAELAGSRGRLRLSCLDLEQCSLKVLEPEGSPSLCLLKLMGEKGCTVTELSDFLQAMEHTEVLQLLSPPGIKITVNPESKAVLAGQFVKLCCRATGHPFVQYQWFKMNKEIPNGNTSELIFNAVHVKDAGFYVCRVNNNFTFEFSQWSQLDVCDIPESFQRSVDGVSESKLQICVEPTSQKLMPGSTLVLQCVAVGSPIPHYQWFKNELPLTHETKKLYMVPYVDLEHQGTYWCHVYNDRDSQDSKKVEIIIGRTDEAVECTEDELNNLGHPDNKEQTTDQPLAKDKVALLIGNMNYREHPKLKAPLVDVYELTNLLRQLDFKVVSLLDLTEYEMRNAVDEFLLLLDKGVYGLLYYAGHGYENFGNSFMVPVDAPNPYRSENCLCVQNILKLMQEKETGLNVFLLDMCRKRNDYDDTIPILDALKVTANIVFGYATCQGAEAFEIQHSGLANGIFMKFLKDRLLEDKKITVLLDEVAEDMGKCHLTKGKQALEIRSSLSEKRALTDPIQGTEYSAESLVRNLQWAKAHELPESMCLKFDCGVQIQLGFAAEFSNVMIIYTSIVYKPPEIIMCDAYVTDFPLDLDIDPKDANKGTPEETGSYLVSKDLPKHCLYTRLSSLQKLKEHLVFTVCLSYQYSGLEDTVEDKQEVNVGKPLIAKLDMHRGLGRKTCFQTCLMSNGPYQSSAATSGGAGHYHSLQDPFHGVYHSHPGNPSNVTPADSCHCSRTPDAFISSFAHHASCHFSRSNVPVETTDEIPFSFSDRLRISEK
Description: MALT1 protease assay, Assay 2 (1 nM MALT1, Ac-LRSR-AMC substrate). The note with it: 1 nM MALT1, 50 μM Ac-LRSR-AMC, 2 h pre-incubation, 8 hr incubation at RT. It is filed as biochemical. The method, boiled down:
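Compounds (0.1% DMSO final) sat 2 h at RT with insect-cell-expressed His-MALT1(1-824), in 50 mM Tris pH 7.5, 600 mM sodium citrate, 1 mM DTT, 1 mM EDTA, 0.05% BSA. Cleavage of 50 μM Ac-LRSR-AMC (Km ~100 μM) ran 8 h at RT, read as AMC fluorescence. IC50 and Hill coefficient fitted to % remaining activity.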

For the compound `CC1(C)CC(C(=O)Nc2cnc(-n3nccn3)c(C#N)c2)c2cnn3cc(C(F)F)nc3c21` (single isomer, unassigned) [Example 197, N-(5-cyano-6-(2H-1,2,3-triazol-2-yl)pyridin-3-yl)-2-(difluoromethyl)-9,9-dimethyl-8,9-dihydro-7H-cyclopenta[d]imidazo[1,2-b]pyridazine-7-carboxamide], the half-inhibitory concentration (IC50) fell in the range of 10 to 100 nM.

The compound `CC1(C)C[C@@H](C(=O)Nc2cnc(OC(F)F)c(C#N)c2)c2cnn3cc(C(F)F)nc3c21` (single isomer, unassigned) [Example 198, N-(5-cyano-6-(difluoromethoxy)pyridin-3-yl)-2-(difluoromethyl)-9,9-dimethyl-8,9-dihydro-7H-cyclopenta[d]imidazo[1,2-b]pyridazine-7-carboxamide] came in with a 50% inhibitory concentration (IC50) not below 1000 nM.

Compound `CC1(C)CC(C(=O)Nc2cnc(OC(F)F)c(C#N)c2)c2cnn3cc(C(F)F)nc3c21` (single isomer, unassigned) [Example 199, N-(5-cyano-6-(difluoromethoxy)pyridin-3-yl)-2-(difluoromethyl)-9,9-dimethyl-8,9-dihydro-7H-cyclopenta[d]imidazo[1,2-b]pyridazine-7-carboxamide] returned an IC50 of 10 to 100 nM.

In turn, `CC1(C)C[C@@H](C(=O)Nc2ccnc(C(F)(F)F)c2)c2cnn3cc(C(F)F)nc3c21` (single isomer, unassigned) [Example 200, 2-(difluoromethyl)-9,9-dimethyl-N-(2-(trifluoromethyl)pyridin-4-yl)-8,9-dihydro-7H-cyclopenta[d]imidazo[1,2-b]pyridazine-7-carboxamide] showed an IC50 of 100 to 1000 nM.

With `CC1(C)CC(C(=O)Nc2ccnc(C(F)(F)F)c2)c2cnn3cc(C(F)F)nc3c21` (single isomer, unassigned) [Example 201, 2-(difluoromethyl)-9,9-dimethyl-N-(2-(trifluoromethyl)pyridin-4-yl)-8,9-dihydro-7H-cyclopenta[d]imidazo[1,2-b]pyridazine-7-carboxamide], the IC50 was 100 to 1000 nM.

The compound `CC1(C)C[C@@H](C(=O)Nc2cnc(-n3nccn3)c(Cl)c2)c2cnn3cc(C(F)F)nc3c21` (single isomer, unassigned) [Example 202, N-(5-chloro-6-(2H-1,2,3-triazol-2-yl)pyridin-3-yl)-2-(difluoromethyl)-9,9-dimethyl-8,9-dihydro-7H-cyclopenta[d]imidazo[1,2-b]pyridazine-7-carboxamide] gave an IC50 of 100 to 1000 nM.

`CC1(C)CC(C(=O)Nc2cnc(-n3nccn3)c(Cl)c2)c2cnn3cc(C(F)F)nc3c21` (single isomer, unassigned) [Example 203, N-(5-chloro-6-(2H-1,2,3-triazol-2-yl)pyridin-3-yl)-2-(difluoromethyl)-9,9-dimethyl-8,9-dihydro-7H-cyclopenta[d]imidazo[1,2-b]pyridazine-7-carboxamide] gave an IC50 of 10 to 100 nM.

In turn, `CC1(C)CC(C(=O)Nc2cc(C(F)F)c(-c3cc[nH]n3)c(=O)[nH]2)c2cnc3cc(Cl)nn3c21` (stereo not shown) [Example 43, 2-chloro-N-(4-(difluoromethyl)-6-oxo-5˜(1H-pyrazol-3-yl)-1,6-dihydropyridin-2-yl)-8,8-dimethyl-7,8-dihydro-6H-cyclopenta[e]pyrazolo[1,5a]pyrimidine-6-carboxamide] showed a 50% inhibitory concentration (IC50) of 10 to 100 nM.

Compound `CC1(C)CC(C(=O)Nc2cc(C(F)F)c(-c3c[nH]cn3)c(=O)[nH]2)c2cnc3cc(Cl)nn3c21` (stereo not shown) [Example 48, 2-chloro-N-(4-(difluoromethyl)-5˜(1H-imidazol-4-yl)-6-oxo-1,6-dihydropyridin-2-yl)-8,8-dimethyl-7,8-dihydro-6H-cyclopenta[e]pyrazolo[1,5-a]pyrimidine-6-carboxamide] registered an IC50 of 10 to 100 nM.

As to `CC1(C)CC(C(=O)Nc2cc(C(F)F)c(-c3cnco3)c(=O)[nH]2)c2cnc3cc(Cl)nn3c21` (stereo not shown) [Example 59, 2-chloro-N-(4-(difluoromethyl)-5˜(oxazol-5-yl)-6-oxo-1,6-dihydropyridin-2-yl)-8,8-dimethyl-7,8-dihydro-6H-cyclopenta[e]pyrazolo[1,5-a]pyrimidine-6-carboxamide], the IC50 was in the range of 10 to 100 nM.

As usually defined, the IC50 is the midpoint of a concentration-inhibition curve. Low readings indicate inhibition by little substance, high ones a need for much substance.
